Experimental data as given in US20120190752A1, “EXO-S-MECAMYLAMINE METHOD, USE, AND COMPOUND FOR TREATMENT” (Targacept Inc., priority 2009, published 2012).

Tested on: subjects with major depressive disorder (MDD) who were inadequate responders to citalopram
Experiment: CGI-SI (Clinical Global Impression-Severity of Illness), Phase 2b add-on trial
Assay type: in vivo, human
From the text: The Clinical Global Impression rating scales are commonly used measures of symptom severity, treatment response and the efficacy of treatments in treatment studies of patients with mental disorders (Guy, W., 1976). The Clinical Global Impression—Severity scale (CGI-S) is a 7-point scale that requires the clinician to rate the severity of the patient's illness at the time of assessment, relative to the clinician's past experience with patients who have the same diagnosis. Considering total clinical experience, a patient is assessed on severity of mental illness at the time of rating. In more detail, a multi-center double-blind, randomized, placebo-controlled, parallel group, flexible dose titration study of TC-5214 as adjunctive therapy in subjects with major depressive disorder (MDD) who were inadequate responders to citalopram was conducted in centers in the US and India. The study consisted of a screening period, baseline/washout period, open-label phase, double-blind phase, and a follow-up visit. Subject participation in the study could continue for up to 16 weeks of treatment. Following a washout period of up to 28 days for other antidepressants, subjects with MDD and a MADRS total score >/=28 and a Clinical Global Impression-Severity (CGI-S) score >/=4 were enrolled on Day 1 into an open-label citalopram-only phase of the study. This phase lasted 8 weeks, with citalopram (CIT) dose increased from a once-daily dose of 20 mg (Day 1 through Week 4) to 40 mg (Week 4 through Week 8). A total of 579 subjects entered the open-label citalopram phase. At Week 8, subjects who tolerated 40 mg CIT, but whose MADRS score was reduced <50% from baseline and no lower than 17, and CGI-S≧4, were considered inadequate responders. These subjects (n=270) were randomized in a double-blind fashion to receive either placebo or TC-5214-23 as add-on therapy to continued CIT. The double-blind phase of the study also lasted 8 weeks (Week 8 to Week 16). Study drug, TC-5214-23 or placebo, was started at 2 mg daily (1 mg twice per day [BID] dosing), added on to continuing CIT (40 mg PO qd). After 2 weeks of treatment, the dose of TC-5214 could be increased to 4 mg (2 mg BID) or continued unchanged, with up-titration based upon good tolerability and inadequate therapeutic response. After a further 2 weeks, the dose of TC-5214 could be increased again to 8 mg (4 mg BID) if judged appropriate by the investigator, based upon good tolerability and inadequate therapeutic response. At any time during the double-blind phase of the study, placebo or TC-5214-23 could be reduced to the previous dose level following the emergence of unacceptable adverse events (AEs). […] At this follow-up, any signs or symptoms of relapse were evaluated. If a subject was prematurely discontinued from the study between Week 8 and Week 16 for any reason, the investigator was to make every effort to perform all evaluations as per protocol, assuming the subject had reached the end of the double-blind add-on treatment phase. These evaluations were to be made as soon as possible and within 2 weeks of discontinuation. […] There was no meaningful difference in results as a function of age, gender, site, or smoking status. With regard to efficacy endpoints, the following tables present efficacy used in the ITT (Intent-to-Treat) and PP (Per Protocol) populations unless otherwise specific. The primary inference was based upon Week 16 visit using the ITT population. Change from baseline was obtained by subtracting the baseline values from the individual on-treatment values. Change from Week 16 was obtained by subtracting the Week 16 values from the individual follow-up visit (Week 18/19) values. If either the baseline or Week 16 or on-treatment or follow-up value was missing, the change from baseline or Week 16 value was also set to missing. […]

[1] = ITT, Double Blind Week 18 LOCF (Follow-up), change from Week 16
[2] = PP, Double Blind Week 16 LOCF (change from Week 8)
[3] = PP, Double Blind Week 18 LOCF (Follow-up), change from Week 16

## CNC1(C)C2CCC(C2)C1(C)C (stereo in doubt) [TC-5214, (S)—N,2,3,3-tetramethylnorbornan-2-amine]
ITT and PP populations, result in words
  CGI-SI score change from baseline compared with placebo: statistically significant decreases (improvements)
ITT, Double Blind Week 16 LOCF (change from Week 8)
  CGI-SI Mean Difference between TC-5214 and Placebo: 0.87
[1]
  CGI-SI Adjusted Mean change: −0.05
  CGI-SI Mean Difference between TC-5214 and Placebo: 0.01
ITT, Week 8 to Week 16 LOCF
  CGI-SI Difference vs Placebo + CIT: −0.87
ITT, change from Week 8 (double-blind baseline) to Week 16 LOCF, add-on to citalopram
  CGI-SI Adj. Mean change: −1.79
[2]
  CGI-SI Adjusted Mean change: −2.00
  CGI-SI Mean Difference between TC-5214 and Placebo: 0.92
[3]
  CGI-SI Adjusted Mean change: −0.07
  CGI-SI Mean Difference between TC-5214 and Placebo: 0.05
